Results reported in the supplement of paper PMC10627819.

Key:
[1] = system: B. subtilis 168; assay: fitness (endpoint OD595 vs no drug) (fraction); higher = more growth
How it was run: (§1)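 Cultures at OD595 0.01 were dispensed into 384-well plates in TSB, LB Lennox or CY and incubated at 37 °C. Every 30 min for 14 h, OD595 was read and corrected by the first reading. Fitness is the optical density at entry into stationary phase relative to the robust mean of no-drug control wells, capped at 1.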

[2] = system: S. aureus DSM 20231; assay: as above
How it was run: as §1

[3] = system: S. aureus Newman; assay: as above
How it was run: as §1

[4] = system: S. pneumoniae D39V; assay: as above
How it was run: as §1

[5] = system: B. subtilis 168; assay: Bliss interaction score (quartile over a dose matrix) (fitness difference); higher = more antagonism (negative = synergy)
How it was run: (§2)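 Each plate was normalised to the robust mean of its own no-drug wells, using OD595 at entry into stationary phase, with values capped at 1. This normalised growth is the fitness value. The Bliss score is the difference between observed and product-expected fitness, with single-drug fitness inferred from the combination data and quartiles taken over technical, biological and donor/recipient replicates.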

[6] = system: S. aureus DSM 20231; assay: as above
How it was run: as §2

[7] = system: S. aureus Newman; assay: as above
How it was run: as §2

[8] = system: S. pneumoniae D39V; assay: as above
How it was run: as §2
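For Bliss interaction score (quartile over a dose matrix) in this document: first quartile when negative (synergy) and third quartile when positive (antagonism).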

O=C(O[C@@H]1Cc2c(O)cc(O)cc2O[C@@H]1c1cc(O)c(O)c(O)c1)c1cc(O)c(O)c(O)c1 [EGCG] + COc1ccc(C[C@H](N)C(=O)N[C@H]2[C@@H](O)[C@H](n3cnc4c(N(C)C)ncnc43)O[C@@H]2CO)cc1 [Puromycin]
fitness
Conditions | first compound 6.25 µg/mL | first compound 12.5 µg/mL | first compound 25 µg/mL | first compound 50 µg/mL
[1], partner 0.39 µg/mL | 0.91 | – | – | –
[1], partner 0.78 µg/mL | 0.953 | – | – | –
[1], partner 1.56 µg/mL | 0.885 | – | – | –
[2], partner 0.39 µg/mL | – | 0.908 | 0.842 | –
[2], partner 0.78 µg/mL | – | 0.888 | 0.812 | 0.845
[2], partner 1.56 µg/mL | – | 0.864 | 0.846 | 0.777
[3], partner 0.39 µg/mL | – | 0.802 | 0.779 | 0.657
[3], partner 0.78 µg/mL | – | 0.809 | 0.789 | –
[3], partner 1.56 µg/mL | – | 0.846 | 0.787 | –
[4], partner 1 µg/mL | – | 0.949 | – | 0.965
[4], partner 2 µg/mL | – | 0.895 | 0.917 | 0.91
[4], partner 4 µg/mL | – | – | 0.384 | –

fitness, [2], one replicate
Conditions | first compound 12.5 µg/mL | first compound 25 µg/mL | first compound 50 µg/mL
partner 3.12 µg/mL | 0.846 | 0.945 | 0.676
partner 6.24 µg/mL | 0.745 | 0.527 | 0.172

Conditions | Bliss interaction score
[5] | -0.0503
[6] | 0.09
[7] | 0.0755
[8] | 0.0916

O=C(O[C@@H]1Cc2c(O)cc(O)cc2O[C@@H]1c1cc(O)c(O)c(O)c1)c1cc(O)c(O)c(O)c1 [EGCG] + C[C@@H]1O[C@@H]1P(=O)(O)O [Fosfomycin]
fitness
Conditions | first compound 6.25 µg/mL | first compound 12.5 µg/mL | first compound 25 µg/mL | first compound 50 µg/mL
[1], partner 1.562 µg/mL | 0.682 | – | – | –
[1], partner 3.124 µg/mL | 0.562 | – | 0.396 | –
[1], partner 6.248 µg/mL | 0.448 | 0.439 | 0.25 | –
[2], partner 0.781 µg/mL | – | 0.583 | 0.541 | 0.402
[2], partner 1.562 µg/mL | – | 0.459 | 0.465 | –
[2], partner 3.124 µg/mL | – | 0.416 | 0.399 | 0.23
[3], partner 0.781 µg/mL | – | 0.494 | 0.573 | 0.548
[3], partner 1.562 µg/mL | – | 0.542 | 0.502 | 0.48
[3], partner 3.124 µg/mL | – | 0.251 | 0.219 | 0.185
[4], partner 1.25 µg/mL | – | 0.965 | 0.913 | 0.969
[4], partner 2.5 µg/mL | – | 0.948 | 0.936 | 0.856
[4], partner 5 µg/mL | – | 0.774 | 0.796 | 0.854

Conditions | Bliss interaction score
[5] | 0.144
[6] | -0.113
[7] | 0.101
[8] | 0.0738

O=C(O[C@@H]1Cc2c(O)cc(O)cc2O[C@@H]1c1cc(O)c(O)c(O)c1)c1cc(O)c(O)c(O)c1 [EGCG] + C[n+]1ccc(-c2cc[n+](C)cc2)cc1 [Paraquat]
fitness
Conditions | first compound 6.25 µg/mL | first compound 12.5 µg/mL | first compound 25 µg/mL | first compound 50 µg/mL
[1], partner 1.25 µg/mL | 0.912 | – | – | –
[1], partner 2.5 µg/mL | 0.918 | – | – | –
[1], partner 5 µg/mL | 0.836 | 0.691 | – | –
[2], partner 1.25 µg/mL | – | 0.792 | 0.774 | –
[2], partner 2.5 µg/mL | – | 0.767 | 0.827 | 0.609
[2], partner 5 µg/mL | – | 0.757 | 0.733 | 0.56
[3], partner 1.25 µg/mL | – | 0.709 | 0.579 | –
[3], partner 2.5 µg/mL | – | 0.691 | 0.812 | –
[3], partner 5 µg/mL | – | – | 0.796 | 0.787
[4], partner 1.5 µg/mL | – | 0.953 | ≥ 1 | 0.952
[4], partner 3 µg/mL | – | 0.971 | 0.999 | 0.839
[4], partner 6 µg/mL | – | 0.91 | ≥ 1 | ≥ 1

Conditions | Bliss interaction score
[5] | 0.0809
[6] | -0.0973
[7] | -0.052
[8] | 0.0566

O=C(O[C@@H]1Cc2c(O)cc(O)cc2O[C@@H]1c1cc(O)c(O)c(O)c1)c1cc(O)c(O)c(O)c1 [EGCG] + Cc1cc(NS(=O)(=O)c2ccc(N)cc2)no1 [Sulfamethoxazol]
fitness, one replicate
Conditions | first compound 6.25 µg/mL | first compound 12.5 µg/mL | first compound 25 µg/mL | first compound 50 µg/mL
[1], partner 0.5 µg/mL | 0.831 | 0.551 | 0.271 | –
[3], partner 8 µg/mL | – | 0.712 | 0.703 | 0.675

fitness
Conditions | partner 1 µg/mL | partner 2 µg/mL | partner 4 µg/mL
[1], first compound 6.25 µg/mL | 0.881 | 0.815 | 0.901
[1], first compound 25 µg/mL | – | 0.299 | 0.341
[2], first compound 12.5 µg/mL | 0.841 | 0.863 | 0.854
[2], first compound 25 µg/mL | 0.769 | 0.842 | 0.833
[2], first compound 50 µg/mL | 0.75 | 0.733 | 0.795
[3], first compound 12.5 µg/mL | 0.806 | 0.806 | 0.786
[3], first compound 25 µg/mL | 0.764 | 0.801 | 0.779
[3], first compound 50 µg/mL | 0.685 | 0.783 | 0.772
[4], first compound 12.5 µg/mL | 0.934 | 0.905 | 0.965
[4], first compound 25 µg/mL | 0.941 | 0.966 | 0.905
[4], first compound 50 µg/mL | 0.951 | ≥ 1 | 0.725

Conditions | Bliss interaction score
[5] | -0.0762
[6] | 0.071
[7] | 0.0456
[8] | 0.0423

O=C(O[C@@H]1Cc2c(O)cc(O)cc2O[C@@H]1c1cc(O)c(O)c(O)c1)c1cc(O)c(O)c(O)c1 [EGCG] + Cc1ncc([N+](=O)[O-])n1CCO [Metronidazole]
fitness
Conditions | partner 0.625 µg/mL | partner 1.073 µg/mL | partner 1.25 µg/mL | partner 2.145 µg/mL | partner 2.5 µg/mL | partner 4.29 µg/mL | partner 5 µg/mL
[1], first compound 6.25 µg/mL | 0.969 | – | 0.944 | – | 0.928 | – | –
[2], first compound 12.5 µg/mL | 0.853 | – | 0.787 | – | 0.795 | – | –
[2], first compound 25 µg/mL | 0.792 | – | 0.807 | – | 0.838 | – | –
[2], first compound 50 µg/mL | 0.779 | – | 0.753 | – | 0.841 | – | –
[3], first compound 12.5 µg/mL | 0.833 | – | 0.847 | – | 0.809 | – | –
[3], first compound 25 µg/mL | 0.833 | – | 0.807 | – | 0.785 | – | –
[3], first compound 50 µg/mL | 0.769 | – | 0.747 | – | 0.736 | – | –
[4], first compound 12.5 µg/mL | – | 0.888 | 0.956 | 0.493 | 0.982 | 0.825 | 0.976
[4], first compound 25 µg/mL | – | 0.839 | 0.979 | – | ≥ 1 | – | 0.984
[4], first compound 50 µg/mL | – | 0.803 | 0.813 | 0.391 | 0.949 | 0.602 | 0.907

fitness, [3], one replicate
Conditions | first compound 12.5 µg/mL | first compound 25 µg/mL | first compound 50 µg/mL
partner 0.781 µg/mL | 0.781 | 0.807 | 0.943
partner 1.562 µg/mL | 0.8 | 0.833 | ≥ 1
partner 3.124 µg/mL | 0.782 | 0.81 | 0.963

Conditions | Bliss interaction score
[5] | -0.039
[6] | -0.112
[7] | 0.0648
[8] | -0.0826
